From the NIST ThermoML archive (doi:10.1016/j.fluid.2015.11.009) come the findings set out here.

For data set [1] the following is noted: 298.15 K; 101.33 kPa; Liquid; Pycnometric method.
Data set [2] can be described thus: refractive index (Na D-line) (dimensionless). Particulars: 298.15 K; 101.33 kPa; Liquid; Standard Abbe refractometry.

± gives the expanded uncertainty stated by the source.

By mass density is commonly meant mass per unit of volume. What is called refractive index is a measure of how strongly the sample bends light. Consider `COCOCOC` [2,4,6-trioxaheptane], for which, in data set [1], the mass density stood at 957.8 ± 0.3 kg/m3. For the same molecule, in data set [2], the refractive index is on record as 1.3789 ± 0.0004.
The matching figures for `CCCCO` [butan-1-ol]: 805.2 ± 0.3 kg/m3 and 1.3967 ± 0.0004.
With `O` [water], the refractive index in data set [2] worked out at 1.3325 ± 0.0004.
